Results as given in US7311893B2, “Amyloid targeting imaging agents and uses thereof” (Neurochem (International) Limited, priority 2000, dated 2007).

These compounds were tested on insoluble amyloid or amyloid plaques (assay: binding data for amyloid-targeting moieties (FIGS. 1 and 2)). Conditions: insoluble vs soluble amyloid; data in FIGS. 1 and 2.

Compound	binding to insoluble amyloid or amyloid plaques in preference to soluble amyloid
1,6-hexanedisulfonate	bind insoluble amyloid or amyloid plaques in preference to soluble amyloid
O=S(=O)(O)CCCN1CCN(CCCS(=O)(=O)O)CC1 [1,4-piperazinebis(propanesulfonic acid)]	bind insoluble amyloid or amyloid plaques in preference to soluble amyloid
O=S(=O)(O)CCCNC1(CO)CCCC1 [3-(1-hydroxymethyl-1-cyclopentyl)amino-1-propane sulfonic acid]	bind insoluble amyloid or amyloid plaques in preference to soluble amyloid
O=S(=O)(O)CCCNCCCCCCO [3-(6-hydroxy-1-hexyl)amino-1-propane sulfonic acid]	bind insoluble amyloid or amyloid plaques in preference to soluble amyloid
O=S(=O)(O)CCCN1CC=CCC1 [3-[1-(1,2,3,6-tetrahydropyridinyl)]-1-propanesulfonic acid]	bind insoluble amyloid or amyloid plaques in preference to soluble amyloid
O=S(=O)(O)NCCCO [3-hydroxypropylsulfamic acid]	bind insoluble amyloid or amyloid plaques in preference to soluble amyloid
O=S(=O)(O)CCCCN1CCCCC1 [4-(1-piperidinyl)-1-butanesulfonic acid]	bind insoluble amyloid or amyloid plaques in preference to soluble amyloid
Cc1ccc2nc(-c3ccc(N=NNc4ccc(-c5nc6ccc(C)c(S(=O)(=O)[O-])c6s5)cc4)cc3)sc2c1S(=O)(=O)[O-].[Na+].[Na+] [Thiazole yellow G, reference compound]	bind insoluble amyloid or amyloid plaques in preference to soluble amyloid
NCCCC[C@H](NCCCS(=O)(=O)O)C(=O)O [alpha-N-(3-sulfopropyl)-L-lysine]	bind insoluble amyloid or amyloid plaques in preference to soluble amyloid
COC(=O)CCN1CCc2ccccc2C1.Cl [methyl 2-(2-carboxyethyl)-1,2,3,4-tetrahydroisoquinoline hydrochloride]	bind insoluble amyloid or amyloid plaques in preference to soluble amyloid
